This passage reports EC50 results from patent publication US10189816B2, “Substituted pyridines as inhibitors of human immunodeficiency virus replication” (priority 2015, dated 2019).

pEC50: −log10 of the molar value. Read-outs that look alike come from different tables or passages of the source.

This assay concerns NL-RLuc virus. In words: Inhibition of HIV replication (NL-RLuc reporter virus in MT-2 cells, luciferase readout). The class given is cell-based. To be noted: for pEC50: read-out: Activity; for EC50: read-out: EC50 μM. From the text: Inhibition of HIV replication: A recombinant NL-RLuc proviral clone was constructed in which a section of the nef gene from NL4-3 was replaced with the Renilla Luciferase gene. This virus is fully infectious and can undergo multiple cycles of replication in cell culture. In addition, the luciferous reporter provides a simple and easy method for quantitating the extent of virus growth and consequently, the antiviral activity of test compounds. The plasmid pNLRLuc contains the proviral NL-Rluc DNA cloned into pUC18 at the PvuII site. The NL-RLuc virus was prepared by transfection of 293T cells with the plasmid pNLRLuc. Transfections were performed using the LipofectAMINE PLUS kit from Invitrogen (Carlsbad, Calif.) according to the manufacturer and the virus generated was titered in MT-2 cells. For susceptibility analyses, the titrated virus was used to infect MT-2 cells in the presence of compound, and after 5 days of incubation, cells were processed and quantitated for virus growth by the amount of expressed luciferase. Assay media was RPMI 1640 supplemented with 10% heat inactivated fetal bovine serum (FBS), 100 units/ml penicillin G/100 units/ml streptomycin, 10 mM HEPES buffer pH 7.55 and 2 mM L-glutamine. The results from at least 2 experiments were used to calculate the EC50 values. Luciferase was quantitated using the Dual Luciferase kit from Promega (Madison, Wis.). Susceptibility of viruses to compounds was determined by incubation in the presence of serial dilutions of the compound. The 50% effective concentration (EC50) was calculated by using the exponential form of the median effect equation where (Fa)=1/[1+(ED50/drug conc.)^m] (Johnson V A, Byington R T. Infectivity Assay. In Techniques in HIV Research. ed. Aldovini A, Walker B D. 71-76. New York: Stockton Press.1990). Activity equal to A refers to a compound having an EC50≤100 nM, while B and C denote compounds having an EC50 between 100 nM and 1 uM (B) or >1 uM (C).

Where [1] appears, read: Human immunodeficiency virus 1, MT2, 120 h.

In the case of `Cc1nc(C)c([C@H](OC(C)(C)C)C(=O)O)c(N2CCC(C)(C)CC2)c1-c1ccc2c(c1)CCN(Cc1cc(Cl)ccc1F)C2` [Compound 42, (S)-2-(tert-butoxy)-2-(5-(2-(5-chloro-2-fluorobenzyl)-1,2,3,4-tetrahydroisoquinolin-6-yl)-4-(4,4-dimethylpiperidin-1-yl)-2,6-dimethylpyridin-3-yl)acetic acid], the pEC50 under setting [1] was more than 7.00.
Still for that read-out and setting: the value for `Cc1nc(C)c([C@H](OC(C)(C)C)C(=O)O)c(N2CCC(C)(C)CC2)c1-c1ccc2c(c1)CCN(Cc1cc(F)cc(Cl)c1)C2` [Compound 43, (S)-2-(tert-butoxy)-2-(5-(2-(3-chloro-5-fluorobenzyl)-1,2,3,4-tetrahydroisoquinolin-6-yl)-4-(4,4-dimethylpiperidin-1-yl)-2,6-dimethylpyridin-3-yl)acetic acid] was more than 7.00; that for `Cc1nc(C)c([C@H](OC(C)(C)C)C(=O)O)c(N2CCC(C)(C)CC2)c1-c1ccc2c(c1)CCN(Cc1c(F)ccc(F)c1F)C2` [Compound 44, (S)-2-(tert-butoxy)-2-(4-(4,4-dimethylpiperidin-1-yl)-2,6-dimethyl-5-(2-(2,3,6-trifluorobenzyl)-1,2,3,4-tetrahydroisoquinolin-6-yl)pyridin-3-yl)acetic acid] was more than 7.00.
With `Cc1nc(C)c([C@H](OC(C)(C)C)C(=O)O)c(N2CCC(C)(C)CC2)c1-c1ccc2c(c1)CCN(Cc1cc(F)ccc1Cl)C2` [Compound 45, (S)-2-(tert-butoxy)-2-(5-(2-(2-chloro-5-fluorobenzyl)-1,2,3,4-tetrahydroisoquinolin-6-yl)-4-(4,4-dimethylpiperidin-1-yl)-2,6-dimethylpyridin-3-yl)acetic acid], under setting [1], the pEC50 was more than 7.00 and the EC50 came to 0.003 µM.
Take `Cc1cc(F)cc(CN2CCc3cc(-c4c(C)nc(C)c([C@H](OC(C)(C)C)C(=O)O)c4N4CCC(C)(C)CC4)ccc3C2)c1` [Compound 46, (S)-2-(tert-butoxy)-2-(4-(4,4-dimethylpiperidin-1-yl)-5-(2-(3-fluoro-5-methylbenzyl)-1,2,3,4-tetrahydroisoquinolin-6-yl)-2,6-dimethylpyridin-3-yl)acetic acid]: under setting [1], the pEC50 was more than 7.00.
Still for that read-out and setting: the figure for `Cc1ccc(F)cc1CN1CCc2cc(-c3c(C)nc(C)c([C@H](OC(C)(C)C)C(=O)O)c3N3CCC(C)(C)CC3)ccc2C1` [Compound 47, (S)-2-(tert-butoxy)-2-(4-(4,4-dimethylpiperidin-1-yl)-5-(2-(5-fluoro-2-methylbenzyl)-1,2,3,4-tetrahydroisoquinolin-6-yl)-2,6-dimethylpyridin-3-yl)acetic acid] is more than 7.00; for `Cc1ccc(F)c(CN2CCc3cc(-c4c(C)nc(C)c([C@H](OC(C)(C)C)C(=O)O)c4N4CCC(C)(C)CC4)ccc3C2)c1F` [Compound 48, (S)-2-(tert-butoxy)-2-(5-(2-(2,6-difluoro-3-methylbenzyl)-1,2,3,4-tetrahydroisoquinolin-6-yl)-4-(4,4-dimethylpiperidin-1-yl)-2,6-dimethylpyridin-3-yl)acetic acid] it is more than 7.00; for `Cc1nc(C)c([C@H](OC(C)(C)C)C(=O)O)c(N2CCC(C)(C)CC2)c1-c1ccc2c(c1)CCN(Cc1cc(F)c(F)cc1F)C2` [Compound 49, (S)-2-(tert-butoxy)-2-(4-(4,4-dimethylpiperidin-1-yl)-2,6-dimethyl-5-(2-(2,4,5-trifluorobenzyl)-1,2,3,4-tetrahydroisoquinolin-6-yl)pyridin-3-yl)acetic acid] it is more than 7.00.
On the same count and under the same terms, the value for `Cc1nc(C)c([C@H](OC(C)(C)C)C(=O)O)c(N2CCC(C)(C)CC2)c1-c1ccc2c(c1)CCN(Cc1c(F)cccc1F)C2` [Compound 50, (S)-2-(tert-butoxy)-2-(5-(2-(2,6-difluorobenzyl)-1,2,3,4-tetrahydroisoquinolin-6-yl)-4-(4,4-dimethylpiperidin-1-yl)-2,6-dimethylpyridin-3-yl)acetic acid] was more than 7.00.
`Cc1cccc(F)c1CN1CCc2cc(-c3c(C)nc(C)c([C@H](OC(C)(C)C)C(=O)O)c3N3CCC(C)(C)CC3)ccc2C1` [Compound 51, (S)-2-(tert-butoxy)-2-(4-(4,4-dimethylpiperidin-1-yl)-5-(2-(2-fluoro-6-methylbenzyl)-1,2,3,4-tetrahydroisoquinolin-6-yl)-2,6-dimethylpyridin-3-yl)acetic acid]: under setting [1], the pEC50 was more than 7.00 and the concentration for a half-maximal effect (EC50) is 0.003 µM.
`Cc1ccc(C(F)(F)F)cc1CN1CCc2cc(-c3c(C)nc(C)c([C@H](OC(C)(C)C)C(=O)O)c3N3CCC(C)(C)CC3)ccc2C1` [Compound 52, (S)-2-(tert-butoxy)-2-(4-(4,4-dimethylpiperidin-1-yl)-2,6-dimethyl-5-(2-(2-methyl-5-(trifluoromethyl)benzyl)-1,2,3,4-tetrahydroisoquinolin-6-yl)pyridin-3-yl)acetic acid]: under “NL-RLuc virus in MT-2 cells, 5 days of incubation, luciferase, at least 2 experiments”, the pEC50 is more than 7.00.
Take `Cc1nc(C)c([C@H](OC(C)(C)C)C(=O)O)c(N2CCC(C)(C)CC2)c1-c1ccc2c(c1)CCN(Cc1ccc(Cl)cc1Cl)C2` [Compound 53, (S)-2-(tert-butoxy)-2-(5-(2-(2,4-dichlorobenzyl)-1,2,3,4-tetrahydroisoquinolin-6-yl)-4-(4,4-dimethylpiperidin-1-yl)-2,6-dimethylpyridin-3-yl)acetic acid]: the pEC50 under setting [1] was more than 7.00.
In the case of `Cc1cccc(CN2CCc3cc(-c4c(C)nc(C)c([C@H](OC(C)(C)C)C(=O)O)c4N4CCC(C)(C)CC4)ccc3C2)c1F` [Compound 54, (S)-2-(tert-butoxy)-2-(4-(4,4-dimethylpiperidin-1-yl)-5-(2-(2-fluoro-3-methylbenzyl)-1,2,3,4-tetrahydroisoquinolin-6-yl)-2,6-dimethylpyridin-3-yl)acetic acid], the pEC50 under setting [1] is more than 7.00.
As for `Cc1nc(C)c([C@H](OC(C)(C)C)C(=O)O)c(N2CCC(C)(C)CC2)c1-c1ccc2c(c1)CCN(Cc1ccccc1Cl)C2` [Compound 55, (S)-2-(tert-butoxy)-2-(5-(2-(2-chlorobenzyl)-1,2,3,4-tetrahydroisoquinolin-6-yl)-4-(4,4-dimethylpiperidin-1-yl)-2,6-dimethylpyridin-3-yl)acetic acid], the pEC50 under setting [1] was more than 7.00.
The same measure, in the same setting: the value for `Cc1nc(C)c([C@H](OC(C)(C)C)C(=O)O)c(N2CCC(C)(C)CC2)c1-c1ccc2c(c1)CCN(Cc1ccc(Cl)cc1)C2` [Compound 56, (S)-2-(tert-butoxy)-2-(5-(2-(4-chlorobenzyl)-1,2,3,4-tetrahydroisoquinolin-6-yl)-4-(4,4-dimethylpiperidin-1-yl)-2,6-dimethylpyridin-3-yl)acetic acid] was more than 7.00; that for `Cc1cc(C)c(CN2CCc3cc(-c4c(C)nc(C)c([C@H](OC(C)(C)C)C(=O)O)c4N4CCC(C)(C)CC4)ccc3C2)c(C)c1` [Compound 57, (S)-2-(tert-butoxy)-2-(4-(4,4-dimethylpiperidin-1-yl)-2,6-dimethyl-5-(2-(2,4,6-trimethylbenzyl)-1,2,3,4-tetrahydroisoquinolin-6-yl)pyridin-3-yl)acetic acid] was more than 7.00.
Consider `Cc1nc(C)c([C@H](OC(C)(C)C)C(=O)O)c(N2CCC(C)(C)CC2)c1-c1ccc2c(c1)CCN(Cc1c(F)cc(F)cc1F)C2` [Compound 58, (S)-2-(tert-butoxy)-2-(4-(4,4-dimethylpiperidin-1-yl)-2,6-dimethyl-5-(2-(2,4,6-trifluorobenzyl)-1,2,3,4-tetrahydroisoquinolin-6-yl)pyridin-3-yl)acetic acid], for which the pEC50 under setting [1] was more than 7.00.
